In assay [1] the test system is PDE6δ/farnesylated peptide complex. Nature of the assay: Fluorescence polarization release of farnesylated peptide from PDE6δ by Arl proteins. In kind it is biochemical. The source says: Towards an explanation for the possible sorting mechanism that leaves some PDE6δ-cargo in the cell body but allows others to be enriched in the cilia we turned to the release activities of Arl2 and Arl3. […] While Arl2 is a non-ciliary protein, Arl3 localizes along the length of the cilium. Using fluorescence polarization, we measured the release of INPP5E and Rheb peptides from PDE6δ by the addition of Arl2 or Arl3 bound to the non-hydrolysable GTP analogue GppNHp. […] To compare the cargo release kinetics of Arl2·GppNHp and Arl3·GppNHp, we measured the dissociation rate constants of INPP5E and Rheb peptides from PDE6δ in the presence and absence of Arl3·GppNHp or Arl2·GppNHp, by adding a large excess of unlabelled peptide to silence the back reaction. […]
Figure 2 INPP5E release from PDE6δ by Arl2·GppNHp and Arl3·GppNHp. (a) Fluorescence polarization measurements of 0.5 μM FITC-labelled Rheb peptide followed by addition of 0.5 μM PDE6δ and the addition of 5 μM Arl2·GppNHp or Arl3·GppNHp (arrow). (b) Fluorescence polarization measurements of 0.2 μM TAMRA-labelled INPP5E peptide followed by the addition of 0.2 μM PDE6δ (arrow) and 5 μM Arl2·GppNHp or Arl3·GppNHp (arrow). […]
(§1) All fluorescence polarization measurements were performed at 20 °C in a buffer containing 25 mM Tris-HCl (pH 7.5), 50 mM NaCl and 3 mM DTE. […]
Arl3•GTP. Fluorescence polarization measurements of 0.2 µM TAMRA-labeled […]

The subject of assay [2] is PDE6δ. The assay can be described thus: Stopped-flow fluorescence polarization kinetics of mantGppNHp-loaded Arl proteins with PDE6δ. It is filed as binding. As to conditions: for association rate constant kon with PDE6δ: 0.2 μM mantGppNHp-loaded Arl protein, increasing PDE6δ; for association rate constant kon with PDE6δ / dissociation rate constant koff from PDE6δ: 20 °C; for association rate constant kon with PDE6δ / dissociation rate constant koff from PDE6δ / Kd: n=4; for dissociation rate constant koff from PDE6δ: 2 μM PDE6δ with 0.2 μM mantGppNHp-loaded Arl protein, 200-fold excess unlabelled Arl protein; for Kd: calculated from kinetic constants, ± s.d., read-out: equilibrium dissociation constant Kd with PDE6δ (Kd=koff/kon). Here is the method: Previously we have shown that the N-terminal helix of Arl3 is important to release myristoylated cargo from a complex with the shuttle factor UNC119 (ref. [30]). To find out whether the N-terminus of Arl3 and/or Arl2 has a similar if any role in the interaction with PDE6δ, fluorescence polarization measurements using full-length Arl3 (Arl3^fl) or an N-terminal truncated form (Arl3^ΔN) were performed. […] To investigate the role of the N-terminal helix of Arl3 in the release mechanism, we measured association and dissociation rate constants to determine the affinity of PDE6δ towards Arl2 and Arl3 in both full-length and N-terminal truncated forms. Association rate constants between the four proteins Arl3^fl, Arl3^ΔN, Arl2^fl and Arl2^ΔN are rather similar although association is almost twice as fast for full-length Arl3 as compared with Arl2 (Fig. 3a,b). […] The Kd values for Arl2^fl and Arl3^fl differ from previously determined values, likely because of the different techniques used.
Figure 3 Contribution of the N-terminal helix of Arl3 to the binding affinity with PDE6δ. (a) Stopped-flow fluorescence polarization kinetic measurements of the association of 0.2 μM mantGppNHp loaded Arl proteins with increasing concentrations of PDE6δ. The observed pseudo-first order rate constants (kobs) are plotted against PDE6δ concentration. (b) Bar charts of the association rate constants (kon) determined in a. (c,d) Stopped-flow fluorescence polarization kinetic experiments where complexes of 2 μM PDE6δ with 0.2 μM of full-length (Arl^fl) or N-terminally deleted (Arl^ΔN) mantGppNHp loaded Arl proteins as indicated were mixed with 200-fold excess of unlabelled Arl proteins to determine koff. (e) Bar charts of the dissociation rate constants (koff) from experiments in c,d. (f) Bar charts of the equilibrium dissociation constants (Kd) of complexes between PDE6δ and Arl proteins as determined from the kinetic constants in c,e. Error bars indicate s.d., n=4. TEXT PRINTED IN THE PICTURE: (b) Arl3^fl: kon (μM^-1s^-1): 5.97 | (b) Arl3^ΔN: kon (μM^-1s^-1): 4.25 | (b) Arl2^fl: kon (μM^-1s^-1): 2.25 | (b) Arl2^ΔN: kon (μM^-1s^-1): 3.09 | (e) Arl3^fl: koff (s^-1): 0.035 | (e) Arl3^ΔN: koff (s^-1): 0.92 | (e) Arl2^fl: koff (s^-1): 0.33 | (e) Arl2^ΔN: koff (s^-1): 0.98 | (f) Arl3^fl: kd (nM): 5.84 | (f) Arl3^ΔN: kd (nM): 217 | (f) Arl2^fl: kd (nM): 149 | (f) Arl2^ΔN: kd (nM): 319
All fluorescence polarization measurements were performed at 20 °C in a buffer containing 25 mM Tris-HCl (pH 7.5), 50 mM NaCl and 3 mM DTE. For the titration measurement, data were recorded with Fluoromax-4 spectrophotometer (HORIBA Jobin Yvon, Munich, Germany) with excitation and emission wavelengths at 530 and 580 nm for TAMRA-labelled INPP5E peptide and at 495 and 520 nm for fluorescein-labelled Rheb peptide. The kinetic measurements were monitored by a stopped-flow apparatus (Applied Photophysics) in the polarization mode using an excitation wavelength of 366 nm and filter with 420 nm cutoff for mantGppNHp bound Arl protein, excitation wavelength of 495 nm and filter with 520 nm cutoff for fluorescein-labelled Rheb peptide and excitation wavelength of 530 nm and filter with 570 nm cutoff for TAMRA-labelled INPP5E peptide. Data analysis was done with GraFit 5.0 program (Erithracus Software). Concentrations used for each experiment are indicated in the corresponding figure legend.

Assay [3] deals with PDE6δ. Nature of the assay: Stopped-flow fluorescence polarization, dissociation of peptides from PDE6δ with and without Arl2/Arl3·GppNHp. It is filed as binding. As to conditions: 1 μM PDE6δ, 0.2 μM labelled peptide, 100-fold excess unlabelled peptide, 20 °C, ± s.d., n=4.
Excerpt: Towards an explanation for the possible sorting mechanism that leaves some PDE6δ-cargo in the cell body but allows others to be enriched in the cilia we turned to the release activities of Arl2 and Arl3. […] While Arl2 is a non-ciliary protein, Arl3 localizes along the length of the cilium. Using fluorescence polarization, we measured the release of INPP5E and Rheb peptides from PDE6δ by the addition of Arl2 or Arl3 bound to the non-hydrolysable GTP analogue GppNHp. […] To compare the cargo release kinetics of Arl2·GppNHp and Arl3·GppNHp, we measured the dissociation rate constants of INPP5E and Rheb peptides from PDE6δ in the presence and absence of Arl3·GppNHp or Arl2·GppNHp, by adding a large excess of unlabelled peptide to silence the back reaction. […] The presence of Arl3·GppNHp or Arl2·GppNHp has a similar acceleration effect on the dissociation rate of Rheb peptide from PDE6δ (koff=27.2±0.7 and 15.3±0.3 s^−1, respectively, ±indicates s.d., n=4) (Fig. 2c,d).
Figure 2 INPP5E release from PDE6δ by Arl2·GppNHp and Arl3·GppNHp. (a) Fluorescence polarization measurements of 0.5 μM FITC-labelled Rheb peptide followed by addition of 0.5 μM PDE6δ and the addition of 5 μM Arl2·GppNHp or Arl3·GppNHp (arrow). (b) Fluorescence polarization measurements of 0.2 μM TAMRA-labelled INPP5E peptide followed by the addition of 0.2 μM PDE6δ (arrow) and 5 μM Arl2·GppNHp or Arl3·GppNHp (arrow). (c–f) Stopped-flow fluorescence polarization kinetic experiment where complexes of 1 μM PDE6δ with either 0.2 μM of FITC-labelled Rheb peptide (c,d) or TAMRA-labelled farnesylated INPP5E peptide (e,f) were mixed with 100-fold excess of unlabelled peptide and 10 μM of Arl2 (c,e) or Arl3 (d,f) as indicated.
as §1

Like-named read-outs stand apart in the source and are kept apart here. Peptide text beside a SMILES is read from it. * marks the point of attachment. FITC = O=C1OC2(c3ccc(O)cc3Oc3cc(O)ccc32)c2ccc(NC(=S)*)cc21; Farnesyl = CC(C)=CCC/C(C)=C/CC/C(C)=C/C*

Turning to “Arl3^fl: full-length Arl3, GppNHp or mantGppNHp loaded”, in assay [1] (0.2 μM TAMRA-labelled INPP5E peptide, 0.2 μM PDE6δ, 5 μM Arl3fl or Arl3ΔN), the “release of INPP5E peptide from PDE6δ by Arl3 form” value is “unable to release the INPP5E peptide”. Besides, in the assay on PDE6δ [2], the “association rate constant kon with PDE6δ” value was 5.97e+06 M⁻¹ s⁻¹, the “dissociation rate constant koff from PDE6δ” value came to 0.035 s⁻¹ and the Kd was 5.84 nM. Besides, in the assay with PDE6δ [2] (listed as Arl3^ΔN), the “association rate constant kon with PDE6δ” value is 4.25e+06 M⁻¹ s⁻¹, the “dissociation rate constant koff from PDE6δ” value worked out at 0.92 s⁻¹ and the Kd is 217 ± 4.3 nM. For the same compound, in the assay with PDE6δ [2] (Arl3 full-length versus ΔN), the “increase of affinity to PDE6δ by the N-terminal helix” value turned out to be 37 fold.

For the compound `COC(=O)[C@H](CSC/C=C(\C)CC/C=C(\C)CCC=C(C)C)NC(=O)[C@H](CO)NC(=O)[C@H](CO)NC(=O)[C@H](CCCCN)NC(=O)CNC(=O)[C@H](CCC(N)=O)NC(=O)[C@H](CO)NC(=S)Nc1ccc2c(c1)C(=O)OC21c2ccc(O)cc2Oc2cc(O)ccc21` [Rheb peptide] ({FITC}-SQGKSSC(Farnesyl)-OMe; N-terminus and C-terminus assumed), in assay [1] (0.5 μM FITC-Rheb peptide + 0.5 μM PDE6δ or 0.2 μM TAMRA-INPP5E peptide + 0.2 μM PDE6δ, 5 μM Arl·GppNHp), the “release of peptide from PDE6δ by Arl2·GppNHp or Arl3·GppNHp” value was “can be released by both Arl2·GppNHp and Arl3·GppNHp”. Further, the “koff from PDE6δ in presence of Arl2·GppNHp” value with PDE6δ [3] (10 μM Arl2·GppNHp) amounted to 15.3 ± 0.3 s⁻¹. The “koff from PDE6δ in presence of Arl3·GppNHp” value in the assay with PDE6δ [3] (10 μM Arl3·GppNHp) stood at 27.2 ± 0.7 s⁻¹. Moreover, the “intrinsic dissociation rate koff from PDE6δ” value with PDE6δ [3] (absence of Arl2/3) came out at 0.95 ± 0.004 s⁻¹.

(Values after publication PMC5512577, “PDE6δ-mediated sorting of INPP5E into the cilium is determined by cargo-carrier affinity” (Nature Communications, 2016).)
